Reference: US9376391B2, “Difluoromethyl-nicotinic-tetrahydronaphthyl carboxamides as fungicides” (BAYER CROPSCIENCE AKTIENGESELLSCHAFT, priority 2012, dated 2016)

What was measured:
[1] = log P by HPLC on reversed phase columns (EEC directive 79/831 Annex V.A8); format: physicochemical; conditions: HPLC/LC-MS at pH 2.7, 0.1% formic acid in water / acetonitrile, gradient 10% to 95%
Puccinia recondita = experiment: In vivo preventive test on Puccinia recondita (brown rust on wheat); conditions: wheat, spray, graded 12 days after contamination vs control plants
Description: In Vivo Preventive Test on Puccinia recondita (Brown Rust on Wheat) […] Wheat plants (“Scipion” variety), sown in starter cups on a 50/50 peat soil-pozzolana substrate and grown at 22° C., are treated at the 1-leaf stage (10 cm height) by spraying with the active ingredient prepared as described above. Plants, used as controls, are treated with the mixture of acetone/tween/DMSO/water not containing the active material. After 24 hours, the plants are contaminated by spraying the leaves with an aqueous suspension of Puccinia recondita spores (100 000 spores per ml). The spores are collected from an infected plant and are suspended in water containing 2.5 ml/1 of Tween 80 at 10%. The contaminated wheat plants are incubated for 24 hours at 20° C. and at 100% relative humidity, and then for 10 days at 20° C. and at 70-80% relative humidity. Grading (% of efficacy) is carried out 12 days after the contamination, in comparison with the control plants.

Uromyces appendiculatus = experiment: In vivo preventive test on Uromyces appendiculatus (bean rust); conditions: preventive spray, bean plants, grading 11 days after contamination
Description: In Vivo Preventive Test on Uromyces appendiculatus (Bean Rust) […] Bean plants (“Saxa” variety), sown in starter cups on a 50/50 peat soil-pozzolana substrate and grown at 24° C., are treated at the 2-leaf stage (9 cm height) by spraying with the active ingredient prepared as described above. Plants, used as controls, are treated with the mixture of acetone/tween/DMSO/water not containing the active material. After 24 hours, the plants are contaminated by spraying the leaves with an aqueous suspension of Uromyces appendiculatus spores (150 000 spores per ml). The spores are collected from infected plants and are suspended in water containing 2.5 ml/1 of Tween 80 at 10%. The contaminated bean plants are incubated for 24 hours at 20° C. and at 100% relative humidity, and then for 10 days at 20° C. and at 70-80% relative humidity. Grading (% of efficacy) is carried out 11 days after the contamination, in comparison with the control plants.

[2] = Table 2, amines of formula (III-a)

| Compound | logP^[a] ([1]; Table 1, formula (I)) | Eff. % (Puccinia recondita; dose 500 ppm) [%] | also measured |
| --- | --- | --- | --- |
| CCC1(C)CC(C)c2c(NC(=O)c3ccc(Cl)nc3C(F)F)cccc21 (mixture of isomers) [Example 83] | 4.36^[a] | – | Eff. % (Puccinia recondita; dose 100 ppm): 83%; Eff. % (Uromyces appendiculatus; 100 ppm): 72% |
| CC1CC(C(C)(C)C)c2cccc(NC(=O)c3cccnc3C(F)F)c21 (mixture of isomers) [Example 93] | 3.94^[a] | – | – |
| CC1CC(C)(C)c2cccc(NC(=O)c3ccc(Cl)nc3C(F)F)c21 (racemic) [Example 18] | 3.99^[a] | 89 | – |
| CC1OC(C)(C)c2cccc(NC(=O)c3ccc(Cl)nc3C(F)F)c21 (racemic) [Example 24] | 2.77^[a] | 89 | Eff. % (Uromyces appendiculatus; 500 ppm): 100% |
| CC(C)CC1CCc2c(NC(=O)c3cccnc3C(F)F)cccc21 (racemic) [Example 41] | 3.94^[a] | 98 | Eff. % (Uromyces appendiculatus; 500 ppm): 100% |
| Cc1cnc(C(F)F)c(C(=O)Nc2cccc3c2CC(C(C)C)C3(C)C)c1 (racemic) [Example 44] | – | 83 | Eff. % (Uromyces appendiculatus; 500 ppm): 93% |
| CC(C)C1Cc2c(NC(=O)c3ccc(Cl)nc3C(F)F)cccc2C1(C)C (racemic) [Example 45] | 4.77^[a] | 89 | Eff. % (Uromyces appendiculatus; 500 ppm): 88% |
| CCON=C1CC(C)c2c(NC(=O)c3cc(C)cnc3C(F)F)cccc21 (racemic) [Example 50] | 2.99^[a] | 94 | Eff. % (Uromyces appendiculatus; 500 ppm): 100% |
| CCCCON=C1CC(C)c2c(NC(=O)c3cc(C)cnc3C(F)F)cccc21 (racemic) [Example 53] | 3.46^[a] | – | – |
| Cc1cnc(C(F)F)c(C(=O)Nc2cccc3c2C(C)CC32CC2)c1 (racemic) [Example 54] | 3.31^[a] | – | – |
| CC1CC(C)(C)c2cccc(NC(=O)c3cc(Cl)cnc3C(F)F)c21 (racemic) [Example 55] | 4.06^[a] | 72 | – |
| CC1CC2(CC2)c2cccc(NC(=O)c3ccc(Cl)nc3C(F)F)c21 (racemic) [Example 58] | 3.73^[a] | 81 | Eff. % (Uromyces appendiculatus; 500 ppm): 95% |
| Cc1cnc(C(F)F)c(C(=S)Nc2cccc3c2C(C)CC32CC2)c1 (racemic) [Example 68] | 3.68^[a] | – | Eff. % (Puccinia recondita; dose 100 ppm): 100% |
| CCC1OC(CC)(CC)c2cccc(NC(=O)c3cc(C)cnc3C(F)F)c21 (racemic) [Example 72] | 3.52^[a] | – | – |
| CCC1OC(C)(C)c2cccc(NC(=O)c3cc(C)cnc3C(F)F)c21 (racemic) [Example 73] | 2.64^[a] | – | Eff. % (Puccinia recondita; dose 100 ppm): 78% |
| CCC1OC(C)(C)c2cccc(NC(=O)c3ccc(Cl)nc3C(F)F)c21 (racemic) [Example 74] | 3.09^[a] | – | Eff. % (Puccinia recondita; dose 100 ppm): 72% |
| Cc1cnc(C(F)F)c(C(=O)Nc2cccc3c2C(C(C)C)OC3(C)C)c1 (racemic) [Example 75] | 3.00^[a] | – | – |
| CON=C1CCc2c(NC(=O)c3cccnc3C(F)F)cccc21 [Example 5] | 2.15^[a] | – | – |
| CCON=C1CCc2c(NC(=O)c3cccnc3C(F)F)cccc21 [Example 8] | 2.54^[a] | 78 | – |
| CC1CC(C)(C)c2c(Cl)ccc(NC(=O)c3cccnc3C(F)F)c21 (stereo not drawn) [Example 16] | 3.73^[a] | – | – |
| CC1(C)OCc2c(NC(=O)c3cccnc3C(F)F)cccc21 [Example 17] | 2.01^[a] | 100 | Eff. % (Uromyces appendiculatus; 500 ppm): 100% |
| CC1CC(C)(C)c2c(F)ccc(NC(=O)c3ccc(Cl)nc3C(F)F)c21 (stereo not drawn) [Example 19] | 4.09^[a] | 100 | Eff. % (Uromyces appendiculatus; 500 ppm): 79% |
| Cc1cnc(C(F)F)c(C(=O)Nc2cccc3c2C(C)CC3(C)C)c1 (stereo not drawn) [Example 21] | 3.55^[a] | 72 | Eff. % (Uromyces appendiculatus; 500 ppm): 88% |
| Cc1cnc(C(F)F)c(C(=O)Nc2cccc3c2C(C)OC3(C)C)c1 (stereo not drawn) [Example 22] | 2.37^[a] | 83 | – |
| CCC1(CC)OC(C)c2c(NC(=O)c3cc(C)cnc3C(F)F)cccc21 (stereo not drawn) [Example 26] | 3.15^[a] | – | – |
| CC1CC(C)(C)c2cccc(NC(=O)c3c(C(F)F)ccnc3C(F)F)c21 (stereo not drawn) [Example 28] | 3.79^[a] | – | – |

| Compound | logP^[a] ([1]; Table 1, formula (I)) | Eff. % (Puccinia recondita; dose 500 ppm) [%] | also measured |
| --- | --- | --- | --- |
| CON=C1CC(C)c2c(NC(=O)c3cc(C)cnc3C(F)F)cccc21 (stereo not drawn) [Example 29] | 2.61^[a] | – | – |
| Cc1cnc(C(F)F)c(C(=O)Nc2cccc3c2C(C)C(C)C3(C)C)c1 (stereo not drawn) [Example 35] | 3.79^[a] | 93 | – |
| Cc1cnc(C(F)F)c(C(=O)Nc2cccc3c2CC(C)(C)C3)c1 [Example 48] | 3.35^[a] | – | – |
| CCC1(CC)Cc2c(NC(=O)c3cc(C)cnc3C(F)F)cccc2C1C (stereo not drawn) [Example 61] | 4.39^[a] | 78 | – |
| Cc1cnc(C(F)F)c(C(=O)Nc2cccc3c2CC(C)(C)C3C)c1 (stereo not drawn) [Example 63] | 3.65^[a] | 83 | – |
| CC(C)C1Cc2c(NC(=S)c3ccc(Cl)nc3C(F)F)cccc2C1(C)C (stereo not drawn) [Example 66] | 5.11^[a] | – | Eff. % (Puccinia recondita; dose 100 ppm): 98%; Eff. % (Uromyces appendiculatus; 100 ppm): 85% |
| Cc1cnc(C(F)F)c(C(=S)Nc2cccc3c2CC(C(C)C)C3(C)C)c1 (stereo not drawn) [Example 67] | 4.74^[a] | – | Eff. % (Puccinia recondita; dose 100 ppm): 89%; Eff. % (Uromyces appendiculatus; 100 ppm): 100% |
| Cc1cnc(C(F)F)c(C(=O)Nc2cccc3c2C(C)C(C)(C)C3)c1 (stereo not drawn) [Example 86] | 3.59^[a] | – | – |
| CC1c2c(cccc2NC(=O)c2ccc(Cl)nc2C(F)F)CC1(C)C (stereo not drawn) [Example 87] | 3.96^[a] | – | – |
| CCCC1CC(C)c2c(NC(=O)c3cccnc3C(F)F)cccc21 (stereo not drawn) [Example 89] | 3.79^[a] | – | – |
| CC1(C)CCc2c(NC(=O)c3cccnc3C(F)F)cccc21 [Example 92] | 3.08^[a] | – | – |
| CC1(C)CC(C(F)F)c2c(NC(=O)c3cccnc3C(F)F)cccc21 (stereo not drawn) [Example 94] | 3.15^[a] | – | – |
| CC(C)(C)CC1CC(C)(C)c2cccc(NC(=O)c3cccnc3C(F)F)c21 (stereo not drawn) [Example 95] | 4.54^[a] | – | – |
| CC1(C)CC(C(Cl)Cl)c2c(NC(=O)c3cccnc3C(F)F)cccc21 (stereo not drawn) [Example 96] | 3.97^[a] | – | – |
| O=C(Nc1cccc2c1C(=C(Cl)Cl)CC2)c1cccnc1C(F)F [Example 97] | 2.96^[a] | – | – |
| CC1CC(=CCl)c2cccc(NC(=O)c3cccnc3C(F)F)c21 (stereo not drawn) [Example 98] | 3.71^[a] | – | – |
| CC1CC(=C(Cl)Cl)c2cccc(NC(=O)c3cccnc3C(F)F)c21 (stereo not drawn) [Example 99] | 3.13^[a] | – | – |
| CC1CC(C)(C)c2ccc(F)c(NC(=O)c3cccnc3C(F)F)c21 (stereo not drawn) [Example 100] | 3.26^[a] | – | – |
| Cl.Nc1cccc2c1C(=C(Cl)Cl)CC2 [III-a-3] | – | – | logP^[a] [1, 2]: 3.42^[a] |
| CC1CC(=C(Cl)Cl)c2cccc(N)c21.Cl (stereo not drawn) [III-a-4] | – | – | logP^[a] [1, 2]: 3.60^[a] |
| CC(C)(C)CC1CC(C)(C)c2cccc(N)c21 (stereo not drawn) [III-a-6] | – | – | logP^[a] [1, 2]: 4.98^[a] |
| CC1(C)CC(C(Cl)Cl)c2c(N)cccc21 (stereo not drawn) [III-a-7] | – | – | logP^[a] [1, 2]: 4.39^[a] |
| CC(C)(C)CC1CCc2cccc(N)c21.Cl (stereo not drawn) [III-a-8] | – | – | logP^[a] [1, 2]: 4.04^[a] |
| CC1(C)CC(C(F)F)c2c(N)cccc21 (stereo not drawn) [III-a-9] | – | – | logP^[a] [1, 2]: 2.75^[a] |
| CC1CC(C)(C)c2ccc(F)c(N)c21 (stereo not drawn) [III-a-10] | – | – | logP^[a] [1, 2]: 3.71^[a] |
